US4390540A, “Imidazoquinazolines having pharmaceutical activity” (Hoffmann-La Roche Inc., priority 1980, dated 1983)
Where two headings read alike, the source gives them in different places.

Columns and labels:
[1] = test system: heart frequency; assay: Heart frequency (tachycardia) in conscious sheep dogs; format: in vivo; conditions: oral
Protocol: (§1) The positive inotropic activity was measured after the oral administration of the test substances to conscious sheep dogs. For this purpose, the animals are provided with an implanted pressure-telemetry system, whereby the pressure receiver is fixed in the left ventricle. The left ventricular pressure is sent from the animal via the implanted radio transmitter and received via a suitable antenna and receiving system, demodulated and amplified. By differentiation of the ascending side of the left ventricular pressure (LVP), there is calculated the maximum pressure increase rate (dLVP/dtmax) which represents the contractility parameter. Simultaneously, the heart frequency is recorded via a cardiotachograph. Under inotropy there are indicated the percentage variation (Δ%) of dLVP/dtmax and the duration of activity in hours (Hrs.). Under tachycardia there are indicated the percentage variations of the heart frequency (Δ%) after administration of the test substance and the duration of activity in hours (Hrs.).

[2] = test system: left ventricular pressure (LVP); assay: Positive inotropic activity (dLVP/dtmax) in conscious sheep dogs; format: in vivo; conditions: oral; for change in vivo at 10 mg/kg / change in vivo at 1 mg/kg / change in vivo at 3 mg/kg: Canis lupus familiaris, read-out: Inotropy Δ% (percentage variation of dLVP/dtmax)
Protocol: as §1

[3] = test system: Human platelet-rich plasma; assay: Collagen-induced blood platelet aggregation (aggregometer method of Born); format: cell-based; conditions: 10 min; human platelet-rich citrate plasma, 37° C., 10 minutes incubation, collagen fibrils; read-out: EC50 (collagen-induced blood platelet aggregation, maximum aggregation velocity)
Protocol: The maximum aggregation velocity was taken as the test parameter, and the effective concentration (EC50) was ascertained from dosage-activity curves. Human platelet-rich plasma was obtained by centrifugation from citrated venous blood. The experiments were carried out with suspensions of the test substances in 0.9% sodium chloride. 0.18 ml of citrate plasma was treated with a 10 μl suspension of the test compounds and incubated at 37° C. for 10 minutes, whereupon the aggregation was initiated by the addition of 10 μl of a suspension of collagen fibrils.

[4] = test system: gastric acid secretion; assay: Gastric acid secretion inhibition in pylorus-ligated rats (Shay); format: in vivo; conditions: Rattus norvegicus, intraduodenally, female rats, 4 hours
Protocol: The experimental procedure described hereinafter was used to determine the gastric acid secretion-inhibiting activity. More specifically, the pylorus of female rats, which had received no food for 24 hours, but which had received water ad libitum, is ligatured under slight ether narcosis in accordance with Shay et al. [Gastroenterology 5, 43 (1945)]. Immediately thereafter the substance to be tested is administered intraduodenally to the animals. Four hous later the animals are killed, the volume and the acidity of their gastric juice are determined and the values obtained are compared with those of control animals which were treated similarly, but which received no test substance. The ED 50 is that dosage of test substance which brings about a 50% decrease in volume (ED 50 volume) or acidity (ED 50 acidity) of the gastric juice in the treated animals compared with the control animals.

Cc1ccc2c(c1C)CNC1=NC(=O)CN12.Cl [6,7-dimethyl-4,5-dihydroimidazo[1,2-a]quinazolin-2(1H)-one hydrochloride]
Heart frequency Hrs. (duration of activity) ([1]; 10 mg/kg): 6 h | Heart frequency Δ% (percentage variation) ([1]; 10 mg/kg): +3% | Inotropy Hrs (duration of activity) ([2]; 10 mg/kg): 6 h | change in vivo at 10 mg/kg ([2]; 10 mg/kg): 18%

Cc1cccc2c1N1CC(=O)N=C1NC2.Cl [9-methyl-4,5-dihydroimidazo[1,2-a]quinazolin-2(1H)-one hydrochloride]
Heart frequency Hrs. (duration of activity) ([1]; 1 mg/kg): 5.5 h | Heart frequency Δ% (percentage variation) ([1]; 1 mg/kg): -19% | Heart frequency Hrs. (duration of activity) ([1]; 3 mg/kg): 6 h | Heart frequency Δ% (percentage variation) ([1]; 3 mg/kg): -8% | Inotropy Hrs (duration of activity) ([2]; 1 mg/kg): 2.5 h | Inotropy Hrs (duration of activity) ([2]; 3 mg/kg): 6.5 h | change in vivo at 1 mg/kg ([2]; 1 mg/kg): 27% | change in vivo at 3 mg/kg ([2]; 3 mg/kg): 18%

COc1ccc2c(c1)CNC1=NC(=O)CN12.Cl [7-methoxy-4,5-dihydroimidazo[1,2-a]quinazolin-2(1H)-one hydrochloride]
Heart frequency Hrs. (duration of activity) ([1]; 10 mg/kg): 6.5 h | Heart frequency Δ% (percentage variation) ([1]; 10 mg/kg): +50% | Inotropy Hrs (duration of activity) ([2]; 10 mg/kg): 7 h | change in vivo at 10 mg/kg ([2]; 10 mg/kg): 67%

Cc1cccc2c1CNC1=NC(=O)CN12.Cl [6-methyl-4,5-dihydroimidazo[1,2-a]quinazolin-2(1H)-one hydrochloride]
Heart frequency Hrs. (duration of activity) ([1]; 1 mg/kg): 3.5 h | Heart frequency Δ% (percentage variation) ([1]; 1 mg/kg): -7% | Heart frequency Hrs. (duration of activity) ([1]; 3 mg/kg): 5 h | Heart frequency Δ% (percentage variation) ([1]; 3 mg/kg): -12% | Inotropy Hrs (duration of activity) ([2]; 1 mg/kg): 2 h | Inotropy Hrs (duration of activity) ([2]; 3 mg/kg): 4.5 h | change in vivo at 1 mg/kg ([2]; 1 mg/kg): 15% | change in vivo at 3 mg/kg ([2]; 3 mg/kg): 32%

Cl.O=C1CN2C(=N1)NCc1c2ccc(Cl)c1Cl [6,7-dichloro-4,5-dihydroimidazo[1,2-a]quinazolin-2(1H)-one hydrochloride]
Heart frequency Hrs. (duration of activity) ([1]; 1 mg/kg): 7 h | Heart frequency Δ% (percentage variation) ([1]; 1 mg/kg): +22% | Inotropy Hrs (duration of activity) ([2]; 1 mg/kg): 7.5 h | change in vivo at 1 mg/kg ([2]; 1 mg/kg): 44%

Cl.O=C1CN2C(=N1)NCc1cc(Cl)ccc12 [7-chloro-4,5-dihydroimidazo[1,2-a]quinazolin-2(1H)-one hydrochloride]
Heart frequency Hrs. (duration of activity) ([1]; 10 mg/kg): 3 h | Heart frequency Δ% (percentage variation) ([1]; 10 mg/kg): +13% | Inotropy Hrs (duration of activity) ([2]; 10 mg/kg): 3.5 h | change in vivo at 10 mg/kg ([2]; 10 mg/kg): 17%

Cl.O=C1CN2C(=N1)NCc1c(Cl)cccc12 [6-chloro-4,5-dihydroimidazo[1,2-a]quinazolin-2(1H)-one hydrochloride]
EC50 [3]: 12.3 µM | ED50 ([4]; read-out: ED 50 acidity (50% decrease in acidity of the gastric juice)): 10 mg/kg | ED50 ([4]; read-out: ED 50 volume (50% decrease in volume of the gastric juice)): 15 mg/kg | Heart frequency Hrs. (duration of activity) ([1]; 10 mg/kg): 6 h | Heart frequency Δ% (percentage variation) ([1]; 10 mg/kg): +77% | Inotropy Hrs (duration of activity) ([2]; 10 mg/kg): 7 h | change in vivo at 10 mg/kg ([2]; 10 mg/kg): 78%

Cc1c(Br)ccc2c1CNC1=NC(=O)CN12.Cl [7-bromo-6-methyl-4,5-dihydroimidazo[1,2-a]quinazolin-2(1H)-one hydrochloride]
EC50 [3]: 35 µM | Heart frequency Hrs. (duration of activity) ([1]; 1 mg/kg): 4 h | Heart frequency Δ% (percentage variation) ([1]; 1 mg/kg): +10% | Heart frequency Hrs. (duration of activity) ([1]; 3 mg/kg): 4 h | Heart frequency Δ% (percentage variation) ([1]; 3 mg/kg): 0% | Heart frequency Hrs. (duration of activity) ([1]; 10 mg/kg): 8 h | Heart frequency Δ% (percentage variation) ([1]; 10 mg/kg): +59% | Inotropy Hrs (duration of activity) ([2]; 1 mg/kg): 2.5 h | Inotropy Hrs (duration of activity) ([2]; 3 mg/kg): 5.5 h | Inotropy Hrs (duration of activity) ([2]; 10 mg/kg): 8 h | change in vivo at 1 mg/kg ([2]; 1 mg/kg): 8% | change in vivo at 3 mg/kg ([2]; 3 mg/kg): 16% | change in vivo at 10 mg/kg ([2]; 10 mg/kg): 120%

Cl.O=C1CN2C(=N1)NCc1ccccc12 [4,5-dihydroimidazo[1,2-a]quinazolin-2(1H)-one hydrochloride]
Heart frequency Hrs. (duration of activity) ([1]; 3 mg/kg): 2.5 h | Heart frequency Δ% (percentage variation) ([1]; 3 mg/kg): +4% | Inotropy Hrs (duration of activity) ([2]; 3 mg/kg): 4 h | change in vivo at 3 mg/kg ([2]; 3 mg/kg): 79%

Cc1ccc2c(c1)CNC1=NC(=O)CN12.Cl [7-methyl-4,5-dihydroimidazo[1,2-a]quinazolin-2(1H)-one hydrochloride]
Heart frequency Hrs. (duration of activity) ([1]; 3 mg/kg): 1 h | Heart frequency Δ% (percentage variation) ([1]; 3 mg/kg): +6% | Inotropy Hrs (duration of activity) ([2]; 3 mg/kg): 2 h | change in vivo at 3 mg/kg ([2]; 3 mg/kg): 33%

COc1ccc2c(c1Cl)CNC1=NC(=O)CN12.Cl [6-chloro-7-methoxy-4,5-dihydroimidazo[1,2-a]quinazolin-2(1H)-one hydrochloride]
Heart frequency Hrs. (duration of activity) ([1]; 1 mg/kg): 5 h | Heart frequency Δ% (percentage variation) ([1]; 1 mg/kg): +47% | Heart frequency Hrs. (duration of activity) ([1]; 3 mg/kg): 6 h | Heart frequency Δ% (percentage variation) ([1]; 3 mg/kg): +20% | Heart frequency Hrs. (duration of activity) ([1]; 10 mg/kg): 7 h | Heart frequency Δ% (percentage variation) ([1]; 10 mg/kg): +45% | Inotropy Hrs (duration of activity) ([2]; 1 mg/kg): 1 h | Inotropy Hrs (duration of activity) ([2]; 3 mg/kg): 7 h | Inotropy Hrs (duration of activity) ([2]; 10 mg/kg): 7 h | change in vivo at 1 mg/kg ([2]; 1 mg/kg): 10% | change in vivo at 3 mg/kg ([2]; 3 mg/kg): 32% | change in vivo at 10 mg/kg ([2]; 10 mg/kg): 60%

Cc1c(Cl)ccc2c1CNC1=NC(=O)CN12.Cl [7-chloro-6-methyl-4,5-dihydroimidazo[1,2-a]quinazolin-2(1H)-one hydrochloride]
Heart frequency Hrs. (duration of activity) ([1]; 1 mg/kg): 5 h | Heart frequency Δ% (percentage variation) ([1]; 1 mg/kg): +4% | Heart frequency Hrs. (duration of activity) ([1]; 3 mg/kg): 3 h | Heart frequency Δ% (percentage variation) ([1]; 3 mg/kg): +6% | Heart frequency Hrs. (duration of activity) ([1]; 10 mg/kg): 6 h | Heart frequency Δ% (percentage variation) ([1]; 10 mg/kg): +31% | Inotropy Hrs (duration of activity) ([2]; 1 mg/kg): 6 h | Inotropy Hrs (duration of activity) ([2]; 3 mg/kg): 1 h | Inotropy Hrs (duration of activity) ([2]; 10 mg/kg): 6 h | change in vivo at 1 mg/kg ([2]; 1 mg/kg): 27% | change in vivo at 3 mg/kg ([2]; 3 mg/kg): 7% | change in vivo at 10 mg/kg ([2]; 10 mg/kg): 50%

CC1C(=O)N=C2NCc3c(ccc(Cl)c3Cl)N21.Cl (stereo not shown) [6,7-dichloro-1-methyl-4,5-dihydroimidazo[1,2-a]quinazolin-2(1H)-one hydrochloride]
Heart frequency Hrs. (duration of activity) ([1]; 3 mg/kg): 8 h | Heart frequency Δ% (percentage variation) ([1]; 3 mg/kg): +16% | Inotropy Hrs (duration of activity) ([2]; 3 mg/kg): 8 h | change in vivo at 3 mg/kg ([2]; 3 mg/kg): 48%
